The source of these data is article PMC7126728 (Bioorganic & Medicinal Chemistry, 2015).

Molecules are shown by their SMILES.

The subject of one experiment is VZV. It is filed as cell-based, varicella zoster virus. The settings on record: HEL cell cultures.
A further experiment concerns HCMV. It is filed as cell-based, human cytomegalovirus. The settings on record: HEL cell cultures.

`O=C(Cn1c(=O)ccn(CCCCOCc2ccc(Br)cc2)c1=O)Nc1ccc(Oc2ccccc2)cc1` [Compound 17, 2-[3-[4-(4-Bromobenzyloxy)butyl]-2,6-dioxo-3,6-dihydropyrimidin-1(2H)-yl]-N-(4-phenoxyphenyl)acetamide]: the “anti-VZV activity (in words)” value in the experiment with VZV is listed as “loss of activity”.
Same read-out and setting: under `O=C(Cn1c(=O)ccn(CCCCCOc2ccccc2)c1=O)Nc1ccc(Oc2ccccc2)cc1` [Compound 7a, 2-[2,6-Dioxo-3-(5-phenoxypentyl)-3,6-dihydropyrimidin-1(2H)-yl]-N-(4-phenoxyphenyl)acetamide] stands “inactive”.
As to `O=C(Cn1c(=O)c(I)cn(CCCCCOc2ccc(Br)cc2)c1=O)Nc1ccc(Oc2ccccc2)cc1` [Compound 7j, 2-[3-[5-(4-Bromophenoxy)pentyl]-5-iodo-2,6-dioxo-3,6-dihydropyrimidin-1(2H)-yl]-N-(4-phenoxyphenyl)acetamide], the “anti-HCMV activity (in words)” value in the experiment on HCMV is “completely inactive”. In addition, the “anti-VZV activity (in words)” value in the experiment on VZV is “completely inactive”.
`O=C(Cn1c(=O)ccn(COCCOCc2ccc(Br)cc2)c1=O)Nc1ccc(Oc2ccccc2)cc1` [Compound 20, 2-[3-[[2-(4-Bromobenzyloxy)ethoxy]methyl]-2,6-dioxo-3,6-dihydropyrimidin-1(2H)-yl]-N-(4-phenoxyphenyl)acetamide]: in the experiment on HCMV, the “anti-HCMV activity (in words)” value was “completely inactive”. The “anti-VZV activity (in words)” value with VZV was “loss of activity”.
For `O=C(Cn1c(=O)ccn(Cc2ccc(Oc3ccc(Br)cc3)cc2)c1=O)Nc1ccc(Oc2ccccc2)cc1` [Compound 23, 2-[3-[4-(4-Bromophenoxy)benzyl]-2,6-dioxo-3,6-dihydropyrimidin-1(2H)-yl]-N-(4-phenoxyphenyl)acetamide], in the experiment on VZV, the “anti-VZV activity (in words)” value is on record as “loss of activity”.
Regarding `O=C(Cn1c(=O)ccn(CCCCCCc2ccccc2)c1=O)Nc1ccc(Oc2ccccc2)cc1` [Compound 13, 2-[2,6-Dioxo-3-(6-phenylhexyl)-3,6-dihydropyrimidin-1(2H)-yl]-N-(4-phenoxyphenyl)acetamide], the “anti-HCMV activity (in words)” value in the experiment with HCMV is listed as “loss of activity”. For the same compound, the “anti-VZV activity (in words)” value in the experiment with VZV is reported as “loss of activity”.
